According to patent US12138341B1 (Technical Institute of Physics and Chemistry, CAS, priority 2023, dated 2024):

Experiment: In vivo pharmacokinetics experiment of CBD microneedle in a rat
Design: species or system SD rat
Conditions: gavage group (oral administration), FIG. 7

Compound: C=C(C)[C@@H]1CCC(C)=C[C@H]1c1c(O)cc(CCCCC)cc1O [CBD, cannabidiol]
- time drug concentration in plasma is maintained: 2 days
